In ChEMBL document CHEMBL1949518, “Synthesis and biological evaluation of some new 2-pyrazolines bearing benzene sulfonamide moiety as potential anti-inflammatory and anti-cancer agents” (Eur J Med Chem, 2011):

What was measured:
Format in all cases: functional
NCI-H226 = assay: Antiproliferative activity against human NCI-H226 cells assessed as cell growth at 10^-5 M after 48 hrs by SRB assay relative to control; conditions: NCI-H226, 48 h, read-out: Activity
NCI-H460 = assay: Antiproliferative activity against human NCI-H460 cells assessed as cell growth at 10^-5 M after 48 hrs by SRB assay relative to control; conditions: NCI-H460, 48 h, read-out: Activity
ACHN = assay: Antiproliferative activity against human ACHN cells assessed as cell growth at 10^-5 M after 48 hrs by SRB assay relative to control; conditions: read-out: Activity
MDA-MB-435 = assay: Antiproliferative activity against human MDA-MB-435 cells assessed as cell growth at 10^-5 M after 48 hrs by SRB assay relative to control; conditions: MDA-MB-435, 48 h, read-out: Activity
TK-10 = assay: Antiproliferative activity against human TK10 cells assessed as cell growth at 10^-5 M after 48 hrs by SRB assay relative to control; conditions: TK-10, 48 h, read-out: Activity
T47D = assay: Antiproliferative activity against human T47D cells assessed as cell growth at 10^-5 M after 48 hrs by SRB assay relative to control; conditions: read-out: Activity
SNB-19 = assay: Antiproliferative activity against human SNB19 cells assessed as cell growth at 10^-5 M after 48 hrs by SRB assay relative to control; conditions: SNB-19, 48 h, read-out: Activity
NCI/ADR-RES = assay: Antiproliferative activity against human NCI/ADR-RES cells assessed as cell growth at 10^-5 M after 48 hrs by SRB assay relative to control; conditions: read-out: Activity
A549 = assay: Antiproliferative activity against human A549 cells assessed as cell growth at 10^-5 M after 48 hrs by SRB assay relative to control; conditions: A549, 48 h, read-out: Activity
COLO 205 = assay: Antiproliferative activity against human COLO205 cells assessed as cell growth at 10^-5 M after 48 hrs by SRB assay relative to control; conditions: COLO 205, 48 h, read-out: Activity
U-251 = assay: Antiproliferative activity against human U251 cells assessed as cell growth at 10^-5 M after 48 hrs by SRB assay relative to control; conditions: U-251, 48 h, read-out: Activity
786-0 = assay: Antiproliferative activity against human 786-0 cells assessed as cell growth at 10^-5 M after 48 hrs by SRB assay relative to control; conditions: 786-0, 48 h, read-out: Activity
SF-539 = assay: Antiproliferative activity against human SF539 cells assessed as cell growth at 10^-5 M after 48 hrs by SRB assay relative to control; conditions: SF-539, 48 h, read-out: Activity
SF-295 = assay: Antiproliferative activity against human SF295 cells assessed as cell growth at 10^-5 M after 48 hrs by SRB assay relative to control; conditions: SF-295, 48 h, read-out: Activity
M14 = assay: Antiproliferative activity against human M14 cells assessed as cell growth at 10^-5 M after 48 hrs by SRB assay relative to control; conditions: M14, 48 h, read-out: Activity
SK-MEL-28 = assay: Antiproliferative activity against human SK-MEL-28 cells assessed as cell growth at 10^-5 M after 48 hrs by SRB assay relative to control; conditions: SK-MEL-28, 48 h, read-out: Activity
EKVX = assay: Antiproliferative activity against human EKVX cells assessed as cell growth at 10^-5 M after 48 hrs by SRB assay relative to control; conditions: read-out: Activity
[1] = Antiproliferative activity against human Hs 578T cells assessed as cell growth at 10^-5 M after 48 hrs by SRB assay relative to control; conditions: read-out: Activity
OVCAR-5 = assay: Antiproliferative activity against human OVCAR5 cells assessed as cell growth at 10^-5 M after 48 hrs by SRB assay relative to control; conditions: OVCAR-5, 48 h, read-out: Activity
LOX IMVI = assay: Antiproliferative activity against human LOXIMVI cells assessed as cell growth at 10^-5 M after 48 hrs by SRB assay relative to control; conditions: read-out: Activity
SF-268 = assay: Antiproliferative activity against human SF268 cells assessed as cell growth at 10^-5 M after 48 hrs by SRB assay relative to control; conditions: SF-268, 48 h, read-out: Activity
MOLT-4 = assay: Antiproliferative activity against human MOLT4 cells assessed as cell growth at 10^-5 M after 48 hrs by SRB assay relative to control; conditions: MOLT-4, 48 h, read-out: Activity
SK-MEL-5 = assay: Antiproliferative activity against human SK-MEL-5 cells assessed as cell growth at 10^-5 M after 48 hrs by SRB assay relative to control; conditions: SK-MEL-5, 48 h, read-out: Activity
SR = assay: Antiproliferative activity against human SR cells assessed as cell growth at 10^-5 M after 48 hrs by SRB assay relative to control; conditions: read-out: Activity
Malme-3M = assay: Antiproliferative activity against human MALME-3M cells assessed as cell growth at 10^-5 M after 48 hrs by SRB assay relative to control; conditions: read-out: Activity
KM12 = assay: Antiproliferative activity against human KM12 cells assessed as cell growth at 10^-5 M after 48 hrs by SRB assay relative to control; conditions: KM12, 48 h, read-out: Activity
UACC-62 = assay: Antiproliferative activity against human UACC62 cells assessed as cell growth at 10^-5 M after 48 hrs by SRB assay relative to control; conditions: UACC-62, 48 h, read-out: Activity
OVCAR-8 = assay: Antiproliferative activity against human OVCAR8 cells assessed as cell growth at 10^-5 M after 48 hrs by SRB assay relative to control; conditions: OVCAR-8, 48 h, read-out: Activity
HCT-15 = assay: Antiproliferative activity against human HCT15 cells assessed as cell growth at 10^-5 M after 48 hrs by SRB assay relative to control; conditions: HCT-15, 48 h, read-out: Activity
IGROV-1 = assay: Antiproliferative activity against human IGROV1 cells assessed as cell growth at 10^-5 M after 48 hrs by SRB assay relative to control; conditions: IGROV-1, 48 h, read-out: Activity
OVCAR-4 = assay: Antiproliferative activity against human OVCAR4 cells assessed as cell growth at 10^-5 M after 48 hrs by SRB assay relative to control; conditions: OVCAR-4, 48 h, read-out: Activity
Rattus norvegicus = assay: Antiinflammatory activity in Wistar rat assessed as inhibition of carrageenan-induced paw edema at 20 mg/kg, po administered 30 mins before carrageenan challenge measured after 5 hrs
HOP-62 = assay: Antiproliferative activity against human HOP62 cells assessed as cell growth at 10^-5 M after 48 hrs by SRB assay relative to control; conditions: HOP-62, 48 h, read-out: Activity
NCI-H322M = assay: Antiproliferative activity against human NCI-H322M cells assessed as cell growth at 10^-5 M after 48 hrs by SRB assay relative to control; conditions: read-out: Activity

| SMILES | growth at 10 µM (NCI-H226) | growth at 10 µM (NCI-H460) | growth at 10 µM (ACHN) | growth at 10 µM (MDA-MB-435) | growth at 10 µM (TK-10) | growth at 10 µM (T47D) | growth at 10 µM (SNB-19) | growth at 10 µM (NCI/ADR-RES) | growth at 10 µM (A549) | growth at 10 µM (COLO 205) | growth at 10 µM (U-251) | growth at 10 µM (786-0) | growth at 10 µM (SF-539) | growth at 10 µM (SF-295) | growth at 10 µM (M14) | growth at 10 µM (SK-MEL-28) | growth at 10 µM (EKVX) | growth at 10 µM [1] | growth at 10 µM (OVCAR-5) | growth at 10 µM (LOX IMVI) | other results |
| --- | --- | --- | --- | --- | --- | --- | --- | --- | --- | --- | --- | --- | --- | --- | --- | --- | --- | --- | --- | --- | --- |
| COc1ccc(C2CC(c3c(O)cc(C)c(Cl)c3C)=NN2c2ccc(S(N)(=O)=O)cc2)cc1 (configuration not stated) | 98.7% | 62% | 96.7% | 79.3% | 104% | 62.1% | 92.7% | 101% | 56% | 102% | 91.3% | 92.5% | 92.3% | 152% | 77.8% | 96.7% | 70.5% | 99% | 86.6% | 70.6% | growth at 10 µM (SF-268): 76.1%; growth at 10 µM (MOLT-4): 36.5%; growth at 10 µM (SK-MEL-5): 94.4%; growth at 10 µM (SR): 41.5%; growth at 10 µM (Malme-3M): 138%; growth at 10 µM (KM12): 75%; growth at 10 µM (UACC-62): 74%; growth at 10 µM (OVCAR-8): 101%; growth at 10 µM (HCT-15): 92.2%; growth at 10 µM (IGROV-1): 71.9%; growth at 10 µM (OVCAR-4): 86.4%; inhibition in vivo at 20 mg/kg (Rattus norvegicus): 36.4%; growth at 10 µM (HOP-62): 78.1%; growth at 10 µM (NCI-H322M): 85.1% |
| Cc1cc(O)c(C2=NN(c3ccc(S(N)(=O)=O)cc3)C(c3ccc(Cl)cc3)C2)c(C)c1Cl (configuration not stated) | 88.8% | 47.1% | 88.6% | 69.3% | 113% | 37% | 107% | 85.7% | 40.8% | 76.2% | 78.3% | 95.6% | 91.6% | 6.34% | 89.3% | 90.2% | 51.1% | 82.5% | 96.8% | 82.8% | growth at 10 µM (SF-268): 72.1%; growth at 10 µM (MOLT-4): 27.3%; growth at 10 µM (SK-MEL-5): 79.6%; growth at 10 µM (SR): -22.2%; growth at 10 µM (Malme-3M): 157%; growth at 10 µM (KM12): 62.4%; growth at 10 µM (UACC-62): 64.8%; growth at 10 µM (OVCAR-8): 75.2%; growth at 10 µM (HCT-15): 80.5%; growth at 10 µM (IGROV-1): 34.1%; growth at 10 µM (OVCAR-4): 58.8%; inhibition in vivo at 20 mg/kg (Rattus norvegicus): 81.8%; growth at 10 µM (HOP-62): 107%; growth at 10 µM (NCI-H322M): 97.6% |
| Cc1cc(O)c(C2=NN(c3ccc(S(N)(=O)=O)cc3)C(c3ccc(N(C)C)cc3)C2)c(C)c1Cl (configuration not stated) | 106% | 3.35% | 58.7% | 38.6% | 80% | 46.9% | 89.8% | 80.3% | 33.2% | 30.8% | 70% | 43.3% | 79% | 20.4% | 39.1% | 76.3% | 49.7% | 71.2% | 95.2% | 52.4% | growth at 10 µM (SF-268): 61.7%; growth at 10 µM (MOLT-4): 14.3%; growth at 10 µM (SK-MEL-5): 81.7%; growth at 10 µM (SR): -24.1%; growth at 10 µM (Malme-3M): 103%; growth at 10 µM (KM12): 29.1%; growth at 10 µM (UACC-62): 53%; growth at 10 µM (OVCAR-8): 5.73%; growth at 10 µM (HCT-15): 65.2%; growth at 10 µM (IGROV-1): 20.6%; growth at 10 µM (OVCAR-4): 58.9%; inhibition in vivo at 20 mg/kg (Rattus norvegicus): 36.4%; growth at 10 µM (HOP-62): 84.3%; growth at 10 µM (NCI-H322M): 75.3% |
